PubChem BioAssay (NCI)
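Each compound was tested at five concentrations against cells in 96-well plates for 48 hours. TGI denotes the concentration required for complete inhibition of growth.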

Tests used:
Assay in all cases: NCI anticancer screen, dose series, 48 h
HS 578T breast = system: HS 578T breast
NCI-H23 lung = system: NCI-H23 lung
NCI-H522 lung = system: NCI-H522 lung
MALME-3M melanoma = system: MALME-3M melanoma
UACC-257 melanoma = system: UACC-257 melanoma
EKVX NSCLC = system: EKVX NSCLC
OVCAR-3 ovarian = system: OVCAR-3 ovarian
T-47D breast = system: T-47D breast
SF-268 CNS = system: SF-268 CNS
IGROV1 ovarian = system: IGROV1 ovarian

Row | SMILES | TGI (HS 578T breast) [µM] | TGI (NCI-H23 lung) [µM] | TGI (NCI-H522 lung) [µM] | TGI (MALME-3M melanoma) [µM] | TGI (UACC-257 melanoma) [µM] | TGI (EKVX NSCLC) [µM] | TGI (OVCAR-3 ovarian) [µM] | TGI (T-47D breast) [µM] | TGI (SF-268 CNS) [µM] | TGI (IGROV1 ovarian) [µM]
1 | COc1cc(C(N)=O)cc(NC(=O)/C=C/c2ccccc2)c1OC | > 100 | > 100 | > 100 | > 100 | > 100 | > 100 | > 100 | > 100 | > 100 | > 100
2 | Cc1c(CCCl)c(N=[N+]=[N-])n2c(nc3ccccc32)c1C#N | 2.43 | 2.95 | 0.44 | 2.9 | 3.53 | 4.4 | 3.15 | 3.18 | 5.67 | 1.64
3 | CN(C)CCNC(=O)c1cccc2nc3cccc(F)c3nc12 | 9.27 | 5.17 | 2.74 | 6.35 | 3.86 | 6.16 | 8.97 | > 28.4 | 19.4 | 9.67
4 | COC(=O)NN=C(c1ccc(Cl)cc1)c1ccc(Cl)cc1 | > 100 | > 100 | > 100 | > 100 | > 100 | > 100 | > 100 | > 100 | > 100 | > 100
5 | O=C1Nc2ccccc2Nc2nc3cccccc-3c21 | – | > 100 | > 100 | > 100 | – | > 100 | > 100 | – | > 100 | > 100
6 | CC(C)OP(=O)(OC(C)C)/C(=N/N)NNc1ccc([N+](=O)[O-])cc1 | – | > 100 | > 100 | > 100 | > 100 | > 100 | > 100 | – | > 100 | –
7 | CC(C)(C)OC(=O)NC(Cc1cnc[nH]1)C(=O)N1CCCC1C(N)=O (centres undefined) | > 100 | > 100 | > 100 | > 100 | > 100 | > 100 | > 100 | > 100 | > 100 | > 100
8 | N#CC1CCN2N=C(c3ccccc3)SC12c1ccccc1 (centres undefined) | > 100 | > 100 | > 100 | > 100 | > 100 | 97.3 | – | > 100 | > 100 | > 100
9 | O=C1CC(=O)c2c(Cl)sc(Cl)c21 | 93.9 | > 100 | 47.1 | 67.2 | > 100 | > 100 | > 100 | > 100 | > 100 | > 100
10 | Cc1ccc(CS(=O)(=O)C/N=c2\sc3ccccc3nc2/C=C(\O)c2ccc(Cl)cc2)cc1 | > 10 | > 10 | > 10 | > 10 | > 10 | – | > 10 | > 10 | > 10 | > 10
11 | COc1ccc(C(C2C(=O)N(C)C(=O)N(C)C2=O)C(F)(F)C(=O)N(C)C)cc1 (centres undefined) | – | > 100 | – | > 100 | > 100 | > 100 | > 100 | > 100 | > 100 | –
12 | CC(C)C(=O)/C=C/c1ccc(Cl)cc1 | – | 44.7 | 30.4 | – | 40.6 | – | 28 | – | 67.5 | 46.3
13 | COC(=O)N/N=C/c1oc(-c2ccccc2)c(-c2ccccc2)c1[N+](=O)[O-] | – | > 100 | > 100 | > 100 | > 100 | – | > 100 | – | > 100 | > 100
14 | Cc1ccc2c(c1)[nH]c(=S)n2C=C1C(=O)CC(C)(C)CC1=O | > 100 | > 100 | > 100 | – | > 100 | > 100 | > 100 | > 100 | > 100 | > 100
15 | O=C(OCC12CC3CC(CC(C3)C1)C2)c1ccc(NCc2cc(O)ccc2O)cc1 | 12.1 | 3.88 | 0.854 | – | 3.28 | 9.26 | 1.67 | 2.06 | 20.5 | 3.21
16 | CCOC(=O)c1cc(C2CCN(Cc3ccccc3)C2=O)c(C(=O)C(=[N+]=[N-])C(C)=O)[nH]1 (centres undefined) | > 100 | > 100 | – | > 100 | > 100 | > 100 | > 100 | > 100 | > 100 | > 100
17 | CSc1ccc2c(cc1=O)C(NC(=O)c1ccc(OC(C)=O)cc1)CCc1cc(O)c(O)c(O)c1-2 (centres undefined) | – | 67.7 | 28.8 | > 100 | 38.9 | 44 | 44.5 | – | > 100 | –
18 | COc1ccc2c(c1)nc1n2C(c2c(F)cccc2Cl)SC1 (centres undefined) | 6.4 | > 35 | – | 5.43 | > 43.2 | > 100 | > 26.1 | > 52.5 | 90.6 | > 100
19 | CC(/C=C/c1ccc([N+](=O)[O-])o1)=N/N1CC(CN2CCOCC2)OC1=O (centres undefined) | > 100 | 49.8 | – | 41.3 | 36.5 | > 100 | 42.8 | 41.2 | 51.9 | –
20 | COC(=O)C1C2C=CC(C2)N1S(=O)(=O)c1ccccc1 (centres undefined) | – | > 100 | > 100 | > 100 | – | – | > 100 | > 100 | > 100 | –
21 | OCC1OC(n2nc(-c3ccccc3)nc2-c2cnccn2)C(O)C1O (centres undefined) | – | > 100 | > 100 | – | > 100 | > 100 | > 100 | > 100 | > 100 | > 100
22 | C#CCOC(=O)C(N)CSSCC(N)C(=O)O (centres undefined) | > 100 | > 100 | > 100 | > 100 | > 100 | > 100 | – | > 100 | > 100 | > 100
23 | Cc1nc2ccccc2c(=O)n1NC(=O)c1ccccc1O | > 100 | > 100 | > 100 | – | > 100 | > 100 | > 100 | – | > 100 | > 100
